The values below come from patent US12606554B2, “Compounds and pharmaceutical compositions thereof for the treatment of diseases” (ONCO3R Therapeutics BV, priority 2019, dated 2026).

Where only a bound is given, the exact number is not on record here.

For test [1] the following is noted: mice; Wein et al. 2016; cited from earlier work.
For test [2], the target named is T1, SIK2 (Homo sapiens, UniProt Q9H0K1).
T1 construct: purchased ThermoFisher Scientific PV4792
The test can be described thus: ADP-Glo kinase assay, SIK2. In kind it is biochemical. The conditions noted are these: AMARA peptide 45 μM, 5 μM ATP, 120 min. An excerpt: (§1) The ADP-Glo™ kinase assay is a luminescent technology assay which measures the ADP formed from a kinase reaction. In this specific study, the kinase reactions consisted of the phosphorylation of the AMARA peptide substrate (SignalChem, Cat #A11-58) by SIK1 (Carma Biosciences, Cat #02-131), SIK2 (ThermoFisher Scientific, Cat #PV4792) or SIK3 (SignalChem, Cat #S12-11G-100). In a second step the kinase reactions are terminated and all the remaining ATP is depleted. In a final step the ADP is converted into ATP and this newly synthesized ATP is measured by using a luciferase/luciferin reaction. The generated light is measured using an Envision plate reader, wherein the luminescent signal obtained positively correlates with the kinase activity.
(§2) The test compounds are prepared as a serial dilution of 10 point dose responses with ⅕ dilution steps in 100% DMSO starting from 2 mM highest concentration, diluted 1/20 in water and […] is transferred to the assay plates (PerkinElmer Inc., Cat #6007290).
(§3) 1% DMSO and 10 μM staurosporine final concentrations are used as negative and positive controls.
(§4) 2 μL enzyme-substrate mixture is added to the assay plates.
(§5) The reaction is started by adding 2 μL diluted ATP on the assay plates. Plates are centrifuged for a few seconds at 1000 rpm and gently shaken for 2 min followed by an incubation at RT for 120 min.
(§6) The reactions are stopped and the unconsumed ATP is depleted by adding 5 μL ADP-Glo Reagent (Promega, Cat #V9121B) to the reaction. The plates are centrifuged for a few seconds at 1000 rpm and incubated at RT for […] (ATP depletion).
(§7) The ADP is converted to ATP and luciferase and luciferin is introduced to detect ATP by adding 10 μL Kinase Detection Reagent (Promega, Cat #V913B+V914r) to the reaction. The plates are centrifuged for a few seconds at 1000 rpm and incubated at RT for 30 min (ADP detection).
(§8) Luminescence is measured on an Envision plate reader (PerkinElmer Inc.).
(§9) Raw data are generated following the read-out performed on the TopCount, plotted to generate dose response curves to calculate percentage inhibition (PIN) and average IC50 for each SIK homologue which are reported in the table below.
(ADP-Glo turns the ADP formed in a reaction into a luminescent signal.)

The target in test [3] is T2, SIK3 (Homo sapiens, UniProt Q9Y2K2).
T2 construct: purchased SignalChem S12-11G-100
T2 sequence (Q9Y2K2 whole entry): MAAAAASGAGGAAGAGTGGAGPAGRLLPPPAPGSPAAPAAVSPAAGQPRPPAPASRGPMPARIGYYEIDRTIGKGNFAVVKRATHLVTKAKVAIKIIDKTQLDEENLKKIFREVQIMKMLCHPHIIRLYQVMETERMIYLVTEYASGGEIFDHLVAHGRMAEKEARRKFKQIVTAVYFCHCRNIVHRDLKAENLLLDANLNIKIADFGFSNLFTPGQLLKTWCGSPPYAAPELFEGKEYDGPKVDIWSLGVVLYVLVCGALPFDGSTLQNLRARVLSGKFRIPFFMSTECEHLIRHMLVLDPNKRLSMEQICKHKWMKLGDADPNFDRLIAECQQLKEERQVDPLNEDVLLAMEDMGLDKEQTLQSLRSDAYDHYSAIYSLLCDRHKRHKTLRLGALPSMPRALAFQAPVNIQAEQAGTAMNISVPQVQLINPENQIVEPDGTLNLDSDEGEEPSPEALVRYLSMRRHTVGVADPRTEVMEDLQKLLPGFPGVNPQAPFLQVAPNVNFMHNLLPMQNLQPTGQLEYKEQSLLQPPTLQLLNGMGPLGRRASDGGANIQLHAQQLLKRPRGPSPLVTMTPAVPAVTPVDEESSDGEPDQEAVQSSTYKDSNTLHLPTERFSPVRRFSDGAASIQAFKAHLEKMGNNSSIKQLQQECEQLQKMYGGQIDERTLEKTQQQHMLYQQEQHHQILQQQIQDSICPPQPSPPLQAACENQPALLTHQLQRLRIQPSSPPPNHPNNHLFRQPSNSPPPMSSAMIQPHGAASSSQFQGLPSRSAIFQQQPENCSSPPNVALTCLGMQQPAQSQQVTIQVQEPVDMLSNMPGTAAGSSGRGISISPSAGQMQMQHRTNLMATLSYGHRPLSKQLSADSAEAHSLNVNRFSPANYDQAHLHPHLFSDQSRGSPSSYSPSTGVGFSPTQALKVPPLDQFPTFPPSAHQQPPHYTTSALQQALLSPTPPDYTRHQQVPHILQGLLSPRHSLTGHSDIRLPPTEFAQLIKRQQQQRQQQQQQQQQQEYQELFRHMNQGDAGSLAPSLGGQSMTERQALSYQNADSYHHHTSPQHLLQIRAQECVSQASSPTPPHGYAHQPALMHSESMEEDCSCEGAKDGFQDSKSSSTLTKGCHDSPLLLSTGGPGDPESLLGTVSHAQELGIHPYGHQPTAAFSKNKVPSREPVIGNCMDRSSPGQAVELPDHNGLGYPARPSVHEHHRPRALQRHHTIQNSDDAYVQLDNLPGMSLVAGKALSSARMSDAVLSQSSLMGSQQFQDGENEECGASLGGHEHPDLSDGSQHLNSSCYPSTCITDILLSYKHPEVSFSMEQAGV
Kind of test: ADP-Glo kinase assay, SIK3. The conditions noted are these: AMARA peptide 45 μM, 5 μM ATP, 120 min. In kind it is biochemical.
Excerpt: as §1, §2, §3, §4, §5, §6, §7, §8, §9

Test [4] concerns the target T3, SIK1 (Homo sapiens, UniProt P57059).
T3 construct: purchased Carna Biosciences 02-131
The test can be described thus: ADP-Glo kinase assay, SIK1. In kind it is biochemical. The conditions noted are these: AMARA peptide 45 μM, 5 μM ATP, 120 min, read-out: SIM1 IC50.
Excerpt: as §1, §2, §3, §4, §5, §6, §7, §8, §9

In test [5] the test system is LPS-induced TNFα in monocytes. Kind of test: Monocytes assay: LPS-triggered TNFα (ELISA). In kind it is cell-based. The conditions noted are these: Homo sapiens, Monocyte, LPS 200 ng/mL, supernatant after 4 h. The method, then:
SIK inhibition inhibits TNFα and increases IL-10 release in LPS triggered monocyte-derived macrophages (MdM) and dendritic cells (MdDCs) (Clark et al. 2012; Sundberg et al. 2014; Ozanne et al. 2015). This assay evaluates illustrative compounds of the invention for their inhibition of LPS-induced TNFα and LPS triggered IL-10 secretion in monocytes.
PBMCs are isolated from human blood samples (buffycoats). The buffy coat is aseptically transferred into a 50 mL Falcon tube, and diluted ½ in PBS. Falcon tubes are filled with 20 mL Lymphoprep™, on top of which 25 mL of the buffy coat is carefully added, tubes are centrifuged for 35 min at 400 g in temperature controlled centrifuge, without brake, at 25° C. PBMCs are aspirated from the white interface layer between sample and Lymphoprep™. PBMCs are washed five times in PBS. Cells are resuspended in RPMI 1640 complete medium supplemented with 10% FBS, 1% P/S, and cell density is determined using a hematologic analyzer (Sysmex XS-500i).
PBMCs are centrifuged at 300×g for 10 min and resuspended at a density of 1.0*10^7 cells/80 μL Miltenyi buffer (PBS, pH 7.4, 1% FBS, 2 mM EDTA).
Starting from this point of the protocol all steps are performed on ice. 20 μL of CD14+ micro-beads are added per 1.0*10^7 cells, the tube is mixed and incubated for 15 min in the fridge at 4° C. Cell suspension volume is adjusted to total volume of 100 mL using Miltenyi buffer, mixed gently and subsequently centrifuged for 10 min at 300×g. Supernatant is discarded and cell pellet is resuspended in 12 mL of Miltenyi buffer.
Four LS columns are placed in the MACS Separator (magnet) from Miltenyi Biotec, and are prewet by rinsing with 3 mL of MACS buffer per column. Three mL of cell suspension is added onto the column (max 1*10^8 of labelled cells/column), and columns are subsequently washed 3 times with 3 mL of Miltenyi buffer.
The columns are removed from the magnets, and 5 mL of Miltenyi buffer are added to the column to flush out the CD14+ fraction by pushing the plunger into the column. The flushed fractions are collected in a fresh 50 mL Falcon and volume is adjusted to 30 mL using Miltenyi buffer, cells are centrifuged for 10 min at 300×g. The obtained cell pellet is resuspended in 10 mL RPMI w/o FBS, and cell density is determined using a hematologic analyser (Sysmex XS-500i). 100 000 cells are seeded in 80 μL per well of a 96-well plate in RPMI 1640 medium supplemented with 10% FBS, 1% P/S.
A compound dilution plate is made in 100% DMSO by 3-fold dilution of 10 mM stock solution. An intermediate dilution plate (10× final concentration) is made by diluting the compound dilution plate 50-fold in RPMI medium.
10 μL of the 10× final concentration compound is added to the cells and incubated for 1 h at 37° C. before addition of trigger. […]
In general terms: In an ELISA, binding on a coated surface is turned into a signal by an enzyme label.

T1 sequence (Q9H0K1 whole entry): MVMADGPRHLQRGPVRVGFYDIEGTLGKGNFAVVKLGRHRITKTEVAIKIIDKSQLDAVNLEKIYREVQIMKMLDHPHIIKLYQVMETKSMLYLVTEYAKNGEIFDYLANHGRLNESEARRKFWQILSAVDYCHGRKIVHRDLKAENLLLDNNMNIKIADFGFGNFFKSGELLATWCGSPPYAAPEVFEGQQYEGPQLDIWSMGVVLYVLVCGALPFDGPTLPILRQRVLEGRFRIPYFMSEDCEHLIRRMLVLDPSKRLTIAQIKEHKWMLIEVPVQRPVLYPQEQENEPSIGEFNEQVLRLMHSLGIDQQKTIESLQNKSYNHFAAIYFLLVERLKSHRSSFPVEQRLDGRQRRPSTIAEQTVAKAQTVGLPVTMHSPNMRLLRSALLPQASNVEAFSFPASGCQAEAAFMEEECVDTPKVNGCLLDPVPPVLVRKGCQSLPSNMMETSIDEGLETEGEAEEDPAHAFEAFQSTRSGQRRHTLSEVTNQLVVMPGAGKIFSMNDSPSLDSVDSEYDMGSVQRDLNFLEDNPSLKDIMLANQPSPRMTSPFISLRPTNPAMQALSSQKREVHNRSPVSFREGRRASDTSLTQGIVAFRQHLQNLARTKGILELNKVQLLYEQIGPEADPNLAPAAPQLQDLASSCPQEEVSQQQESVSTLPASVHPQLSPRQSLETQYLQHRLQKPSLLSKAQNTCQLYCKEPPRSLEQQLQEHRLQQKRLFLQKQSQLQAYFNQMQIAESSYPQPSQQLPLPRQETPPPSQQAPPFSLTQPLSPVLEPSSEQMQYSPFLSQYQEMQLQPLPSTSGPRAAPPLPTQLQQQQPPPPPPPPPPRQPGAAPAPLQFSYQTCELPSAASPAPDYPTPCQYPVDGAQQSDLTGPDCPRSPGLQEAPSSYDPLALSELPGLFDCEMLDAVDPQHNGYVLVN
T3 sequence (P57059 whole entry): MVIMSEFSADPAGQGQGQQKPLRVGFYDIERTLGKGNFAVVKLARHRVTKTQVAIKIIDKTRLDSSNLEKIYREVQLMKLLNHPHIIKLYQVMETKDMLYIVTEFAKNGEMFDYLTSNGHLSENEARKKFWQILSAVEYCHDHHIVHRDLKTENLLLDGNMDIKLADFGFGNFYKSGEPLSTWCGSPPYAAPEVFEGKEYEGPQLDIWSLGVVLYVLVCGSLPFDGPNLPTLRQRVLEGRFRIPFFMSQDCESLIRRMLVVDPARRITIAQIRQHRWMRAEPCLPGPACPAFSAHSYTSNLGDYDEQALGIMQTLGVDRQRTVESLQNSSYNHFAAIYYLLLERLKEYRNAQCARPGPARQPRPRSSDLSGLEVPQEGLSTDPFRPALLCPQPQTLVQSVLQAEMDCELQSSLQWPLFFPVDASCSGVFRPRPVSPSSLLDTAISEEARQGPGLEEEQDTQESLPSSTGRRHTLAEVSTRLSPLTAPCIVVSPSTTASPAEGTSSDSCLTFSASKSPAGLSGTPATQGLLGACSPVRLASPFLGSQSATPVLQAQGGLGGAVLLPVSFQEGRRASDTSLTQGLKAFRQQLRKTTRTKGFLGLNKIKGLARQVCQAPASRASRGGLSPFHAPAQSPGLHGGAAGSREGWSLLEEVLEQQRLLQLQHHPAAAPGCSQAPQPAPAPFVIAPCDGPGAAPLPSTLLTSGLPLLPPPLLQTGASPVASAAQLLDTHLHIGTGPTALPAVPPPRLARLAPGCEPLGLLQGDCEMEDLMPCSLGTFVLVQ

For the compound `COc1ccc(N2C(=O)N(c3c(C)cccc3Cl)Cc3cnc(Nc4ccc(C5CCN(C)CC5)cc4OC)nc32)nc1` [YKL-05-099], the “bone formation and bone mass” value in test [1] is “increased bone formation and bone mass”.

Take `COc1cc(-c2cnn3cc(OCCN4CCOCC4)cnc23)cc2c1C(=O)N(CC(F)(F)F)CC2` [Cpd 4, 8-methoxy-6-[6-(2-morpholinoethoxy)pyrazolo[1,5-a]pyrimidin-3-yl]-2-(2,2,2-trifluoroethyl)-3,4-dihydroisoquinolin-1-one]: the IC50 in test [2] was 0.01 to 0.1 µM; in test [3], 0.01 to 0.1 µM; in test [4], more than 0.5 µM.

`COc1cc(-c2cnn3cc(OC(C)(C)CN4CC5(COC5)C4)ccc23)cc(OC(F)F)c1C(=O)N[C@@H]1C[C@@H]1F` [Cpd 6, 2-(difluoromethoxy)-4-[6-[1,1-dimethyl-2-(2-oxa-6-azaspiro[3.3]heptan-6-yl)ethoxy]pyrazolo[1,5-a]pyridin-3-yl]-N-[(2S)-2-fluorocyclopropyl]-6-methoxy-benzamide] had an EC50 in test [5] of 0.1 to 1 µM. The IC50 in test [2] is 0.01 to 0.1 µM; in test [3], 0.01 to 0.1 µM; in test [4], more than 0.5 µM.

Turning to `COc1cc(-c2cnc3cc(OCCN4CCOCC4)cnn23)cc2c1C(=O)N(CC(F)(F)F)CC2` [Cpd 5, 8-methoxy-6-[7-(2-morpholinoethoxy)imidazo[1,2-b]pyridazin-3-yl]-2-(2,2,2-trifluoroethyl)-3,4-dihydroisoquinolin-1-one], the IC50 was 0.01 to 0.1 µM in test [2], 0.01 to 0.1 µM in test [3] and more than 0.5 µM in test [4].

The IC50 is the concentration needed to halve the response being measured. As a reminder, the EC50 is the concentration that produces a half-maximal response. The low end stands for higher potency in that assay, the high end for lower potency in that assay.
